These results are taken from article PMC8748766, “The catalytic activity of TCPTP is auto-regulated by its intrinsically disordered tail and activated by Integrin alpha-1” (Nature Communications, 2022).

For one test, the system named is TCPTP. Conditions: via the cytoplasmic tail of ITGA1; cited from earlier work.
For test [1], the target named is T1, TCPTPCAT (residues 1-288) (human, UniProt P17706-2 1-288).
T1 construct: T cell protein tyrosine phosphatase (TCPTP, PTPN2), human, TC45 isoform, catalytic domain residues 1-288, cloned into pMCSG7; used for cross-linking in trans; source: E. coli BL21 (DE3) RIL, purified (His-trap, TEV cleavage, subtraction, SEC); not shown: His6, N-terminal, cleaved
T1 sequence (looked up): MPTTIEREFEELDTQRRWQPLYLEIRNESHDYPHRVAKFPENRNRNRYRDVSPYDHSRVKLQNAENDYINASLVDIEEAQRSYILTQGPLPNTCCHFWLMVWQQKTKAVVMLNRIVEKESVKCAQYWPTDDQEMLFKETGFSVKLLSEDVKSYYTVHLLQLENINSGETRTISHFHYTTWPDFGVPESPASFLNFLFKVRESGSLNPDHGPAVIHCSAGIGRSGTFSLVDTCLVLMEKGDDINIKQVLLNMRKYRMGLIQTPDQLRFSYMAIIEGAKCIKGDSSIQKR
Nature of the test: cross-linking; in trans: TCPTPCAT (1-288) 0.75 μM with TCPTP_Tail (289-387) 75 or 150 μM (1:100 and 1:200), BS3 or DSSO 0 to 1000 μM, 25 mM Hepes pH 7.4, 50 mM NaCl, room temperature 1 h; band cut from SDS-PAGE, LC-MS or LC-MSn. Conditions: both partners purified.

Regarding “integrin α1: collagen-binding integrin α1 (ITGA1)”, the “activation of full-length TCPTP” value in the test on TCPTP is given as “activate full-length TCPTP”.

B1: TCPTP_(Tail) (residues 289-387) (domain or fragment, human, UniProt P17706-2 289-387, looked up)
chain: WKELSKEDLSPAFDHSPNKIMTEKYNGNRIGLEEEKLTGDRCTGLSSKMQDTMEENSESALRKRIREDRKATTAQKVQQMKQRLNENERKRKRPRLTDT
notes: T cell protein tyrosine phosphatase (TCPTP, PTPN2), human, TC45 isoform, C-terminal tail residues 289-387, cloned into pMCSG7; used for cross-linking in trans; source: E. coli BL21 (DE3) RIL, purified (His-trap, TEV cleavage, subtraction, heat step 80 °C 10 min, SEC); not shown: His6, N-terminal, cleaved
For the molecule B1, in test [1], the binding result was “binds”.
